Data as given in patent publication US20030118636A1, “Delivery of small hydrophilic molecules packaged into lipid vesicles” (priority 2001, published 2003).
Like-named read-outs stand apart in the source and are kept apart here.

Columns and labels:
[1] = Urinary excretion of IOT after subcutaneous injection in conscious rats; format: in vivo, rat; settings: free IOT
Experimental: DOPC/DOPS (90:10, mol/mol) and DOPC/DOPE liposomes (70:30, mol/mol) were tested.
Male Wistar rats remained conscious throughout the study. To increase the resolution time, the diuretic furosemide (10 mg/kg dose s.c.) was given in the morning, 7 hours before administration of the sample. Urine was collected automatically with a 1 hour resolution. The concentration of IOT in the urine was measured by HPLC.

[2] = rat; cited from earlier work
[3] = free compound
Experimental: The effect of drug formulation on the rate of drug release in vivo was tested in the rat by external counting of radioactivity. The model was based on liposomal formulations that remain at the subcutaneous site of administration with an encapsulated model drug which, when released, was rapidly removed from the subcutaneous site of injection and excreted into the urinary bladder.
Male Wistar rats were anaesthetized using iso-flurane O2/NO throughout the study. Liposome encapsulated MAG3 in a 0.5 ml volume was injected subcutaneously (in the neck) and accumulation of radioactivity in the urinary bladder was constantly monitored by external counting using a gamma-camera (window: 140 keV, 250 keV width, 1 min. time resolution). At the end of the study (after 40 min.), a 10 times higher dose of free MAG3 was administered subcutaneously or intravenously to measure the urinary excretion rates of those formulations.

[4] = humans; cited from earlier work
MscL mutant G22C [5] = target: T1, MscL mutant G22C (Escherichia coli, UniProt P0A742, G22C); format: biochemical, E. coli; settings: for kinetics of calcein release compared to MTSET: 2.5 mM MTSEA, 10 mM MTSES
T1 construct: expressed in transfected cells
T1 sequence (P0A742 2-136 G22C): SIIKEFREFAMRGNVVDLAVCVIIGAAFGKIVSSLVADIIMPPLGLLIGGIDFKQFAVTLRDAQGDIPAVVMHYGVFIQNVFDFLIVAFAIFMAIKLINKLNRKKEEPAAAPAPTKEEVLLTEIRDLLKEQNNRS
Experimental: Samples were prepared, and calcein efflux was monitored as described in examples 1 and 2A.
The membrane reconstitution mixture was incubated for 30 min. at room temperature and 40 mg of detergent-absorbing Bio-Beads SM-2 (Bio-Rad, Inc.) was added and incubated at 4° C. for 30 min. Next, 400 mg Bio-Beads were added and incubated overnight at 4° C. All steps were performed under mild agitation. Samples were prepared for calcein efflux assay as described in example 1.

MscL mutant G22C [6] = target: T1, MscL mutant G22C; format: biochemical, E. coli
Experimental: FIGS. 10A-10D. […] Pressure in the pipette, relative to atmospheric, is shown in the lower traces of FIGS. 10A and 10B, and recordings of the current through a cell attached patch of a spheroplast are shown in the upper traces of FIGS. 10A and 10B. […] Buffer: 200 mM KCl, 90 mM MgCl2, 110 mM CaCl2, 5 mM HEPES, pH 6.0. FIGS. 10C and 10D show the histograms of the conductivity preferences of FIGS. 10A and 10B, respectively.
FIGS. 14A-14D. […] 5 μl of G22C spheroplasts were incubated with IMI (2 mM final concentration) or with patch buffer overnight at 4° C. The next day, currents through cell-attached patches held at +20 mV were recorded for unlabeled (FIG. 14A) and labeled (FIG. 14B) proteins and histograms showing the conductance states of each recording are illustrated in FIG. 14C and FIG. 14D, respectively.
Expression, purification, membrane reconstitution, and patch clamp analysis were performed as described in Example 1 or as described below.
Giant spheroplasts were prepared as explained before (Blount, P. et al., Methods Enzymol. Vol. 294:458-482, 1999).

MscL = target: T2, MscL (Escherichia coli, UniProt P0A742, G22C); format: biochemical, E. coli
T2 construct: made in house; host or cells: E. coli PB104
T2 sequence (P0A742 2-136 G22C): as above

MscL mutant G22C [7] = target: T1, MscL mutant G22C; settings: no tension applied (Yoshimura et al.); cited from earlier work
MscL mutant G22C [8] = target: T1, MscL mutant G22C; assay: FITC-insulin efflux from liposomes with MscL mutant G22C (filter assay); format: biochemical, E. coli; settings: 1 mM MTSET; DOPC:DOPS 9:1 liposomes with MscL mutant G22C
Experimental: Insulin and fluorescein isothiocyanate (FITC) were obtained from Sigma (St. Louis, Mo., USA). Insulin (23 mg) was reacted with a four-fold molar ratio of FITC in 0.1 N borate buffer, pH 9.0, for 60 min. The pH was lowered to 7.5 with 0.1 N boric acid and the solution was extensively dialyzed, using a dialysis membrane with a molecular weight cut-off of 2,000 Da, for 96 hours against water at 4° C. with frequent water changes. Absorption spectra of the dialyzed sample were used to quantify the protein concentration and the stoichiometry of labeling. Concentrations of FITC and insulin were both 0.1 mM. The labeled insulin was encapsulated by three freeze-thaw cycles, followed by extrusion through a 400 nm polycarbonate membrane. The proteoliposomes containing labeled insulin were separated from free labeled insulin by using sephadex G-50 column chromatography equilibrated with 145 mM NaCl, 300 mM Sucrose, 25 mM Tris.HCl and 1 mM EDTA, pH 8.0.
Samples were taken at different time points and Triton was added as a control for maximum fluorescence (100%). Samples were filtered over a 450 nm Cellulose Nitrate filter (Schleicher & Schuell BA85). The filtrate of 2 ml was retained and the fluorescence of 200 I11 of each filtrate was monitored in an fl600 plate reader (Bio-Tek). All experiments were performed in triplicate.

[9] = 1 mM MTSET, DOPC:DOPS 90:10 liposomes with MscL mutant G22C
[10] = DOPC:DOPS 90:10 liposomes with MscL mutant G22C

## CNC(=O)c1c(I)c(NC(C)=O)c(I)c(C(=O)O)c1I [IOT, Iodo-thalamate]
[1]
  first phase urinary excretion: completed in the first couple of hours
[2]
  excretion via glomerular filtration: 1 ml.min^−1.100 g rat

## mertiatide [MAG3]
[3]; intravenous
  time to 50% urinary excretion: 3 min
[3]; subcutaneous
  time to 50% urinary excretion: > 12 min
[4]
  active tubular secretion: 600 mL/min

## COC(=O)C(I)Cc1cnc[nH]1 (stereo not shown) [IMI, methyl 2-iodo-3-(5-imidazolyl)propanoate]
MscL mutant G22C [5]; IMI labeled MscL mutant G22C, pH 7.0 and 8.0 (data not shown)
  channel state in calcein efflux assays: tendency to stay open at pH 7.0 and 8.0
MscL mutant G22C [6]; spheroplasts, pH 6
  ratio of tension sensitivity of MscL over MscS: 1.48

## Br.BrCc1ccncc1 [BP, 4-(bromomethyl)pyridine hydrobromide]
MscL; pH 5.2, +20 mV
  channel behavior of labeled MscL mutant G22C: prefers not to open completely but only to subconducting states and the dwell times get shorter
MscL; pH 7.2, +20 mV
  channel behavior of labeled MscL mutant G22C: behaves as an unlabeled channel

## C[N+](C)(C)CCSS(C)(=O)=O [MTSET, [2-(Trimethylammonium)ethyl]methanethiosulfonate]
MscL mutant G22C [5]; [9]
  encapsulated calcein released: 80%
  time for half of the MscL mediated efflux: ≤ 7 s
MscL mutant G22C [5]; DOPC:Cholesterol 80:20 liposomes with vs without MscL mutant G22C
  calcein release upon addition: effective release of calcein
MscL mutant G22C [7]
  effect of attachment to the cysteine on gating under patch clamp: gate spontaneously
MscL mutant G22C [8]
  FITC-insulin efflux upon activation: release of FITC-insulin
MscL mutant G22C [6]; attached to MscL mutant G22C in spheroplasts
  effect of attachment on pressure sensitivity and gating: spontaneous gating of the channel

## sodium (2-sulfonatoethyl) methane thiosulfonate [MTSES]
MscL mutant G22C [5]; [10]
  kinetics of calcein release compared to MTSET: significantly slower
MscL mutant G22C [7]
  effect of attachment to the cysteine on gating under patch clamp: gate spontaneously

## 2-aminoethyl methanethiosulfonate [MTSEA]
MscL mutant G22C [5]; [10]
  kinetics of calcein release compared to MTSET: significantly slower
MscL mutant G22C [7]
  effect of attachment to the cysteine on gating under patch clamp: gate spontaneously
